Results: US20240189318A1, “THERAPEUTIC REGIMENS OF AN INHIBITOR OF THE ENZYMATIC ACTIVITY OF BRG1 AND BRM” (FOGHORN THERAPEUTICS INC., priority 2021, published 2024)
pIC50: −log10 of the molar value. Where two headings read alike, the source gives them in different places.

What was measured:
[1] = Depletion in Control Bactosomes and Reductase Control; type: in vitro ADME
CYP2C19 = CYP2C19 (Homo sapiens, UniProt P33261); experiment: Depletion by recombinant CYP enzyme, CYP2C19; type: in vitro ADME; set-up: from tissue; host or cells: pooled human liver microsomes; conditions: recombinant 2C19
CYP3a23 mRNA = experiment: CYP mRNA expression in cultured rat hepatocytes, CYP3a23; type: in vitro ADME; conditions: 0.3 to 100 nM
2C19 = biological target: T1, 2C19 (Homo sapiens, UniProt P33261); experiment: Selective chemical inhibition of compound of formula (I) depletion in human liver microsomes, CYP2C19; type: in vitro ADME; conditions: reaction phenotyping
T1 construct: from tissue; host or cells: human liver microsomes

CYP2C9 = CYP2C9 (Homo sapiens, UniProt P11712); experiment: Depletion by recombinant CYP enzyme, CYP2C9; type: in vitro ADME; set-up: from tissue; host or cells: pooled human liver microsomes; conditions: recombinant 2C9
CYP2D6 [2] = biological target: T2, CYP2D6 (Homo sapiens, UniProt P10635); experiment: Depletion by recombinant CYP enzyme, CYP2D6; type: in vitro ADME; set-up: from tissue; host or cells: pooled human liver microsomes; conditions: recombinant 2D6
CYP2D6 [3] = biological target: T2, CYP2D6; experiment: CYP enzyme inhibition in pooled human liver microsomes, CYP2D6; conditions: for inhibition at 30 µM: human, microsomes, Enzyme activity (% inhibition), CYP2D6, probe Dextromethorphan
[4] = tested on: Uveal melanoma cell lines, prostate cancer cells, acute leukemia cells, histocytic lymphoma cells; experiment: 3-day growth inhibition, all cell lines of Table 6; type: cell-based; conditions: 3 days
BCRP = biological target: T3, BCRP (Homo sapiens, UniProt Q9UNQ0); experiment: Transporter inhibition in MDCK-II cells, BCRP; type: in vitro ADME; conditions: for pIC50: probe prazosin 2 μM
T3 construct: expressed in transfected cells; host or cells: MDCK-II
T3 sequence (Q9UNQ0 1-655): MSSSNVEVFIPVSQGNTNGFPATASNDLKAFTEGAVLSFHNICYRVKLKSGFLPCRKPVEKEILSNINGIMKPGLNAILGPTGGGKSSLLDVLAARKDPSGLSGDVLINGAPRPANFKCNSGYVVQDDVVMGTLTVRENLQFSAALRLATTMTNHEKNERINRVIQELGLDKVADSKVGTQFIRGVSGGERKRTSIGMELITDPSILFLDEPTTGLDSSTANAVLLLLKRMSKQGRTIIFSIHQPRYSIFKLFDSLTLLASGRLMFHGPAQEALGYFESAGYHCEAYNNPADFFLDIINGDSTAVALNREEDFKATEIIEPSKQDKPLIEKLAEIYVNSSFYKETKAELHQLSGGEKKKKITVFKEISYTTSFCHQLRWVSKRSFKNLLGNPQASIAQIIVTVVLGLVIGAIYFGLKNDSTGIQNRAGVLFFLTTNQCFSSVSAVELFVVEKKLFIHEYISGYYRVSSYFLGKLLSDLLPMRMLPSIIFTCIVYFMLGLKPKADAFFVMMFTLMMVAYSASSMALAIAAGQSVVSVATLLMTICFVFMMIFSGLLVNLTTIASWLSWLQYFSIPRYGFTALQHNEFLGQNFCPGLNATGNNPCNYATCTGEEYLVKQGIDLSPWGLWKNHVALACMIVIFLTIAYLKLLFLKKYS

CYP3A activity = experiment: CYP enzyme activity in cultured human hepatocytes, CYP3A4; type: in vitro ADME
CYP2B6 = biological target: T4, CYP2B6 (Homo sapiens, UniProt P20813); experiment: CYP enzyme inhibition in pooled human liver microsomes, CYP2B6; conditions: for inhibition at 30 µM: human, microsomes, Enzyme activity (% inhibition), CYP2B6, probe Efavirenz
T4 sequence (P20813 1-491): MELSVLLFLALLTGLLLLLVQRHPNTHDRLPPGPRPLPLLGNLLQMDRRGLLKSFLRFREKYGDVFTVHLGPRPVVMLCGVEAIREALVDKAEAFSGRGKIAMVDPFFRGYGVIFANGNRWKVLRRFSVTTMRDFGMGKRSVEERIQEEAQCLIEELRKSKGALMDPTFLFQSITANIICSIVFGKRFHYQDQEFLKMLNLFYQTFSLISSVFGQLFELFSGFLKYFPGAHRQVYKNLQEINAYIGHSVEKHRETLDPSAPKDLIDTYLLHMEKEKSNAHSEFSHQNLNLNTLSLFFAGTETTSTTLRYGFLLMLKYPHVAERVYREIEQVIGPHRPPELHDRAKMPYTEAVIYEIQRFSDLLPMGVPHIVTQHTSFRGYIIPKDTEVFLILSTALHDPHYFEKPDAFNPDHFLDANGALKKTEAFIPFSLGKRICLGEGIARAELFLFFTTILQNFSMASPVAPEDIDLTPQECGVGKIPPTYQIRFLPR

P-gp = biological target: T5, P-gp (Homo sapiens, UniProt P08183); experiment: Transporter inhibition in MDCK-II cells, P-gp; type: in vitro ADME; conditions: for pIC50: probe quinidine 0.1 μM
T5 construct: expressed in transfected cells; host or cells: MDCK-II

CYP2C8 = CYP2C8 (Homo sapiens, UniProt P10632); experiment: Depletion by recombinant CYP enzyme, CYP2C8; type: in vitro ADME; set-up: from tissue; host or cells: pooled human liver microsomes; conditions: recombinant 2C8
CYP2B6 mRNA = experiment: CYP mRNA level (qRT-PCR) in cultured human hepatocytes, CYP2B6; conditions: tested concentrations up to 50 nM
[5] = Oral absorption in dogs, capsule; type: in vivo; conditions: administered in a capsule
[6] = PHLM, concentrations up to 30 μM
[7] = 30 Minutes Pre-incubation with NADPH, PHLM
[8] = 30 Minutes Pre-incubation without NADPH, PHLM
[9] = FDA guidance 2020, human dose of 300 mg

T2 sequence (P10635 whole entry): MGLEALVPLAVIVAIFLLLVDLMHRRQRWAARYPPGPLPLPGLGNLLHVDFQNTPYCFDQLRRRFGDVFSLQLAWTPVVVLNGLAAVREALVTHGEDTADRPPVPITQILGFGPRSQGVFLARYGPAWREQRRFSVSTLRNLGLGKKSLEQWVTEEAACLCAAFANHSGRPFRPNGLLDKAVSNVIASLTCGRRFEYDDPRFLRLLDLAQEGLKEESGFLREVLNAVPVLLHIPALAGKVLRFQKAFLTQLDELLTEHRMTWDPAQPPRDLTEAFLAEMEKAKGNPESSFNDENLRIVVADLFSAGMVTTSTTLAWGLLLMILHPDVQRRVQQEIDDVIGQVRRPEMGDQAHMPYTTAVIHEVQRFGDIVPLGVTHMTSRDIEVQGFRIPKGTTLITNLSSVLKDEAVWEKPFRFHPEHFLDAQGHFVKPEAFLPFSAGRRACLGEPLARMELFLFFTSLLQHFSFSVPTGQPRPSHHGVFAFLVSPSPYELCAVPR
T5 sequence (P08183 whole entry): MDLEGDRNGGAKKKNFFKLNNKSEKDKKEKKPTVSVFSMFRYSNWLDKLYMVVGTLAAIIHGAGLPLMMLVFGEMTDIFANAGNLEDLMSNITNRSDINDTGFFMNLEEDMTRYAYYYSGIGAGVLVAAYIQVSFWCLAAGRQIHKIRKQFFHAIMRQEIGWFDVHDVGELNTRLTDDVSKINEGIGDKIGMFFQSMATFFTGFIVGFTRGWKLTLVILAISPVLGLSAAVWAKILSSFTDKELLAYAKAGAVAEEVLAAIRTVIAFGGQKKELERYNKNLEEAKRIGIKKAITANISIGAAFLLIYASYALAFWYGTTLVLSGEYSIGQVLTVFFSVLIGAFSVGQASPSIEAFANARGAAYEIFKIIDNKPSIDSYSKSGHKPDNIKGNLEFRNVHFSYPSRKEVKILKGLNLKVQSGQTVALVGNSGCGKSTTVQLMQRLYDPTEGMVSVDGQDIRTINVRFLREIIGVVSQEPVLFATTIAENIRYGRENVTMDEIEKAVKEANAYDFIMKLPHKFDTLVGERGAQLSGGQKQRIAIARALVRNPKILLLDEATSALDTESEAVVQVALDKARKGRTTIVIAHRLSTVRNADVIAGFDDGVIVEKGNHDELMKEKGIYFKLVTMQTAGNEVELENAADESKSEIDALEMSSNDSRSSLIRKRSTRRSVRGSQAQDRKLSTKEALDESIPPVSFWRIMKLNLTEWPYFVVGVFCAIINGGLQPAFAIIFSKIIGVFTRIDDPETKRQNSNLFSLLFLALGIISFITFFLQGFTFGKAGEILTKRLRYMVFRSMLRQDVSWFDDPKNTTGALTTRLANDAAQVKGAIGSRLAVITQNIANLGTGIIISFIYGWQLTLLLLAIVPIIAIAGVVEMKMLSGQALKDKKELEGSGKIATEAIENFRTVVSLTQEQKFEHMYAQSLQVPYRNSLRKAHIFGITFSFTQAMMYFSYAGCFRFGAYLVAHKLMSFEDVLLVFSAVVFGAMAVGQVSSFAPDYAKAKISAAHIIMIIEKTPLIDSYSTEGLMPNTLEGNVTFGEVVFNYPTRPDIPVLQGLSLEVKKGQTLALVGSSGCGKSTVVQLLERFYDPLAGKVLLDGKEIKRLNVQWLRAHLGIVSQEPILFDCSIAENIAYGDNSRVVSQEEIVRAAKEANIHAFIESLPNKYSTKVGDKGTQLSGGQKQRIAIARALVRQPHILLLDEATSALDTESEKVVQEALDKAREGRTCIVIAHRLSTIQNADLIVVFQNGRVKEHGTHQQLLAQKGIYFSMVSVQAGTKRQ
CYP2C19, sequence (P33261 whole entry): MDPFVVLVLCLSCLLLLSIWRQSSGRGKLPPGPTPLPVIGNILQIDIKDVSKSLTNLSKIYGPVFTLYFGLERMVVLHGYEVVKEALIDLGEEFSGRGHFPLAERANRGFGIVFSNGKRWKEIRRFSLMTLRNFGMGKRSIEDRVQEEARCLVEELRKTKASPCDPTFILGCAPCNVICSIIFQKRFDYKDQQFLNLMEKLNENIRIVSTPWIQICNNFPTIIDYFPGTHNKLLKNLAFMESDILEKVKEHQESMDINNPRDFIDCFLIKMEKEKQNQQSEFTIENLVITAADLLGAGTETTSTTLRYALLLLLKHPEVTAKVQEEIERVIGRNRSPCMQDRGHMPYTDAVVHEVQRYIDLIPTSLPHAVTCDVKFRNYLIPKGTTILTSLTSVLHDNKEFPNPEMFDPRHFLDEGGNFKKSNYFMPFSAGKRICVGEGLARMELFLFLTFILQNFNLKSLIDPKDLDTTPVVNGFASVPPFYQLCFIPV
CYP2C8, sequence (P10632 whole entry): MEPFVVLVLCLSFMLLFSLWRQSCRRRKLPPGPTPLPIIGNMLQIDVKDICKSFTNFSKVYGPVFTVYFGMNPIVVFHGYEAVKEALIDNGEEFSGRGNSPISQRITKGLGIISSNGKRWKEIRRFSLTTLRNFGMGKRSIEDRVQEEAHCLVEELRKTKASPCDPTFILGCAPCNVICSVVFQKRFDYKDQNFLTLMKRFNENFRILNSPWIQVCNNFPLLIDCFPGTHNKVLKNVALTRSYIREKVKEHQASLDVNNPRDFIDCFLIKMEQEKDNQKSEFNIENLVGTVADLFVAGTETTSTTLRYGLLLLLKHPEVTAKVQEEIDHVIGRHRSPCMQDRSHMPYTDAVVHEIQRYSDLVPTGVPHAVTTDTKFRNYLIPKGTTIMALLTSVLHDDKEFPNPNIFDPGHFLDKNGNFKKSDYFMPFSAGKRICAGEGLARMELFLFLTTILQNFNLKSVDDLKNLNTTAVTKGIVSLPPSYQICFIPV
CYP2C9, sequence (P11712 whole entry): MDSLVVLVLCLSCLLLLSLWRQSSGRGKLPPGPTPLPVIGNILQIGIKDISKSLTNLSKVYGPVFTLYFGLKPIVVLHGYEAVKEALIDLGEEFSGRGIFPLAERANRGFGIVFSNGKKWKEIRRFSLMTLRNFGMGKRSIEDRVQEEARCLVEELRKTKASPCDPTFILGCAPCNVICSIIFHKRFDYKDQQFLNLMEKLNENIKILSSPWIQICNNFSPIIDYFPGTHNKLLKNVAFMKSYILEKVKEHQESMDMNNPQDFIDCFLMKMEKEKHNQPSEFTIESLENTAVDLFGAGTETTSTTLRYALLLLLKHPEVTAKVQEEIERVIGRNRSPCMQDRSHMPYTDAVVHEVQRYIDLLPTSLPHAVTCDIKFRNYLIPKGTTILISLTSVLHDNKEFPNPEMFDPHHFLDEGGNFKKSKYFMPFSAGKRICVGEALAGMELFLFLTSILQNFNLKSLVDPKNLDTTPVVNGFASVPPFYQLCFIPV
T1 sequence (P33261 whole entry): as the sequence (P33261 whole entry) above

COC[C@H](NC(=O)c1ccn(S(C)(=O)=O)c1)C(=O)Nc1nc(-c2cccc(N3C[C@@H](C)O[C@@H](C)C3)n2)cs1 [compound of formula (I), N-((S)-1-((4-(6-(cis-2,6-dimethylmorpholino)pyridin-2-yl)thiazol-2-yl)amino)-3-methoxy-1-oxopropan-2-yl)-1-(methylsulfonyl)-1H-pyrrole-3-carboxamide]
% Remaining of Compound of Formula (I) ([1]; Control Bactosomes, 0.1 μM): 90.2%
% Remaining of Compound of Formula (I) ([1]; Control Bactosomes, 1 μM): 98.3%
% Remaining of Compound of Formula (I) ([1]; Reductase Control, 0.1 μM): 78.3%
% Remaining of Compound of Formula (I) ([1]; Reductase Control, 1 μM): 109%
% Remaining of Compound of Formula (I) (CYP2C19; 0.1 μM): 80.5%
% Remaining of Compound of Formula (I) (CYP2C19; 1 μM): 95.0%
concentrations at which CYP3a23 mRNA expression was decreased ≥50% (CYP3a23 mRNA): ≥ 10 nM
role of CYP2C19 in metabolism in human liver microsomes (2C19): possible involvement of CYP2C19 to a lesser extent
% Remaining of Compound of Formula (I) (CYP2C9; 0.1 μM): 79.9%
% Remaining of Compound of Formula (I) (CYP2C9; 1 μM): 100%
% Remaining of Compound of Formula (I) (CYP2D6 [2]; 0.1 μM): 85.0%
% Remaining of Compound of Formula (I) (CYP2D6 [2]; 1 μM): 93.5%
pIC50 (CYP2D6 [3]): < 4.52
direct inhibitory activity (% inhibition) toward CYP2D6 (CYP2D6 [3]; [6]): < 50%
inhibition at 30 µM (CYP2D6 [3]; [7]): 9.6%
inhibition at 30 µM (CYP2D6 [3]; [8]): 11.5%
inhibition at 30 µM (CYP2D6 [3]; No Pre-incubation, PHLM): 13.2%
growth inhibition in all the cell lines [4]: potent growth inhibition
pIC50 (BCRP; BCRP in MDCK-II cells, read-out: Estimated IC50 using nominal concentrations): 5.00
pIC50 (BCRP; BCRP, corrected, read-out: IC50 corrected for non-specific binding): 5.62
R-value for BCRP inhibition in the gut (BCRP; [9]): > 10
effect on CYP3A activity (CYP3A activity; 0.3 to 50 nM): minimal
decrease in CYP3A activity (CYP3A activity; concentrations 1 to 50 nM): ≤ 32%
pIC50 (CYP2B6): < 4.52
direct inhibitory activity (% inhibition) toward CYP2B6 (CYP2B6; [6]): < 50%
inhibition at 30 µM (CYP2B6; [7]): -10%
inhibition at 30 µM (CYP2B6; [8]): -6%
inhibition at 30 µM (CYP2B6; No Pre-incubation, PHLM): 7.6%
R-value for P-gp inhibition in the gut (P-gp; [9]): > 10
pIC50 (P-gp; P-gp in MDCK-II cells, read-out: Estimated IC50 using nominal concentrations): 4.73
pIC50 (P-gp; P-gp, corrected, read-out: IC50 corrected for non-specific binding): 5.36
% Remaining of Compound of Formula (I) (CYP2C8; 0.1 μM): 81.0%
% Remaining of Compound of Formula (I) (CYP2C8; 1 μM): 95.4%
effect on mRNA expression of CYP2B6 (CYP2B6 mRNA): minimal effect
oral absorption [5]: good oral absorption
